Test results published in ChEMBL document CHEMBL1201862, “PubChem BioAssay data set” (2004).
Calls of active or inactive are those of the source.

Experiments:
[1] = fluconazole-exposed Candida albicans growth modulators – fluorescence, retest, confirmation (AID 2467); format: functional, cell-based
[2] = microbe, parasite or virus in culture; format: functional; conditions: Mycobacterium tuberculosis
[3] = NIH-3T3 fibroblast cytotoxicity, dose response, cytotoxicity control, cell-based, fluorescence, Alamar Blue, secondary assay (AID 2327); format: functional;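 note: NIH-3T3 mouse fibroblasts cultured with fluconazole at 8 µg/mL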
Leucine aminopeptidase = target: T1, Leucine aminopeptidase (Plasmodium falciparum 3D7, UniProt Q8IL11); experiment: P. falciparum M17LAP inhibitors, primary screen, biochemical, fluorogenic H-Leu-NHMec substrate, 1536-well (AID 1619); format: functional
T1 sequence (Q8IL11 whole entry): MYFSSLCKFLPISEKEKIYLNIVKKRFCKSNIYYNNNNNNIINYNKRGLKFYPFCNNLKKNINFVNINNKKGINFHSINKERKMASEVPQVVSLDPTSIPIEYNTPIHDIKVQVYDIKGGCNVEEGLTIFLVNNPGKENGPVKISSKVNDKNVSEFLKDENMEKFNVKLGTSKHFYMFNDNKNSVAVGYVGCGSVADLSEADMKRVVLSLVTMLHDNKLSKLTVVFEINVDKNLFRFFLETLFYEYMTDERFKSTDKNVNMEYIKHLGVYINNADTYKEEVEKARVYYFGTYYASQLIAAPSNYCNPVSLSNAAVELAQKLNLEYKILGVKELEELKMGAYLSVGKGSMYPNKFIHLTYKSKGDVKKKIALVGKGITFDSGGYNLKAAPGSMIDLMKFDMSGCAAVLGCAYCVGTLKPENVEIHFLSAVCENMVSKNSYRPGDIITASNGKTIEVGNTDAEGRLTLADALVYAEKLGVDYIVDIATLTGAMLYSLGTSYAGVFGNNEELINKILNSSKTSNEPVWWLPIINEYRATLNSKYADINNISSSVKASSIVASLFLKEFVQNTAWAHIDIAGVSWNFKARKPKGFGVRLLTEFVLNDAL

[4] = target: T2, Heat shock factor protein 1 (Mus musculus, UniProt P38532); experiment: decrease of HSF1-responsive luciferase luminescence – cell-based, NIH3T3, dose retest, confirmation (AID 2382); format: functional;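 note: NIH3T3 fibroblasts with HSF1-driven luciferase reporter stressed by proteasome inhibitor MG132; luminescence from HSF1-driven luciferase expression after 8 hours of MG132 stress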
T2 sequence (P38532 whole entry): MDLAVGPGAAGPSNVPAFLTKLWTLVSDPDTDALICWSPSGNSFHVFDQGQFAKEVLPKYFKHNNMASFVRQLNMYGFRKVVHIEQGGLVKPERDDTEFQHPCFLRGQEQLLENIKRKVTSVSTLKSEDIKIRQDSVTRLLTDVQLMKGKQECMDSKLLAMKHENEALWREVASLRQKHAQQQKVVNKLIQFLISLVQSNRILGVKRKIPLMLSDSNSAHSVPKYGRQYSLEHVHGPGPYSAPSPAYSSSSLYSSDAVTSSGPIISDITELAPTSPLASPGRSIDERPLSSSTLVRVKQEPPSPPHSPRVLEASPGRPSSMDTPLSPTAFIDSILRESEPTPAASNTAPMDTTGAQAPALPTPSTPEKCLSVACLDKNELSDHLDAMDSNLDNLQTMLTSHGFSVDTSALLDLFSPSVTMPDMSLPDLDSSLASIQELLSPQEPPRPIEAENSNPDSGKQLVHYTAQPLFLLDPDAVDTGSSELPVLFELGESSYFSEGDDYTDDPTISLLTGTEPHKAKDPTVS

HEK293 = experiment: EBV LMP1 TES2 canonical NF-kB signalling blockers – cell-based, HEK293, luciferase, cherry-pick, dose response (AID 588343); format: functional; conditions: Homo sapiens
Fatty acid synthase [5] = target: T3, Fatty acid synthase (Homo sapiens, UniProt P49327); experiment: inhibition of human FAS-TE enzyme activity – biochemical, endpoint fluorescence intensity, uHTS hits, dose response (AID 624327); format: functional;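 note: fluorescence from hydrolysis of an O-methyl fluorescein acyl ester substrate by the enzyme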
T3 sequence (P49327 whole entry): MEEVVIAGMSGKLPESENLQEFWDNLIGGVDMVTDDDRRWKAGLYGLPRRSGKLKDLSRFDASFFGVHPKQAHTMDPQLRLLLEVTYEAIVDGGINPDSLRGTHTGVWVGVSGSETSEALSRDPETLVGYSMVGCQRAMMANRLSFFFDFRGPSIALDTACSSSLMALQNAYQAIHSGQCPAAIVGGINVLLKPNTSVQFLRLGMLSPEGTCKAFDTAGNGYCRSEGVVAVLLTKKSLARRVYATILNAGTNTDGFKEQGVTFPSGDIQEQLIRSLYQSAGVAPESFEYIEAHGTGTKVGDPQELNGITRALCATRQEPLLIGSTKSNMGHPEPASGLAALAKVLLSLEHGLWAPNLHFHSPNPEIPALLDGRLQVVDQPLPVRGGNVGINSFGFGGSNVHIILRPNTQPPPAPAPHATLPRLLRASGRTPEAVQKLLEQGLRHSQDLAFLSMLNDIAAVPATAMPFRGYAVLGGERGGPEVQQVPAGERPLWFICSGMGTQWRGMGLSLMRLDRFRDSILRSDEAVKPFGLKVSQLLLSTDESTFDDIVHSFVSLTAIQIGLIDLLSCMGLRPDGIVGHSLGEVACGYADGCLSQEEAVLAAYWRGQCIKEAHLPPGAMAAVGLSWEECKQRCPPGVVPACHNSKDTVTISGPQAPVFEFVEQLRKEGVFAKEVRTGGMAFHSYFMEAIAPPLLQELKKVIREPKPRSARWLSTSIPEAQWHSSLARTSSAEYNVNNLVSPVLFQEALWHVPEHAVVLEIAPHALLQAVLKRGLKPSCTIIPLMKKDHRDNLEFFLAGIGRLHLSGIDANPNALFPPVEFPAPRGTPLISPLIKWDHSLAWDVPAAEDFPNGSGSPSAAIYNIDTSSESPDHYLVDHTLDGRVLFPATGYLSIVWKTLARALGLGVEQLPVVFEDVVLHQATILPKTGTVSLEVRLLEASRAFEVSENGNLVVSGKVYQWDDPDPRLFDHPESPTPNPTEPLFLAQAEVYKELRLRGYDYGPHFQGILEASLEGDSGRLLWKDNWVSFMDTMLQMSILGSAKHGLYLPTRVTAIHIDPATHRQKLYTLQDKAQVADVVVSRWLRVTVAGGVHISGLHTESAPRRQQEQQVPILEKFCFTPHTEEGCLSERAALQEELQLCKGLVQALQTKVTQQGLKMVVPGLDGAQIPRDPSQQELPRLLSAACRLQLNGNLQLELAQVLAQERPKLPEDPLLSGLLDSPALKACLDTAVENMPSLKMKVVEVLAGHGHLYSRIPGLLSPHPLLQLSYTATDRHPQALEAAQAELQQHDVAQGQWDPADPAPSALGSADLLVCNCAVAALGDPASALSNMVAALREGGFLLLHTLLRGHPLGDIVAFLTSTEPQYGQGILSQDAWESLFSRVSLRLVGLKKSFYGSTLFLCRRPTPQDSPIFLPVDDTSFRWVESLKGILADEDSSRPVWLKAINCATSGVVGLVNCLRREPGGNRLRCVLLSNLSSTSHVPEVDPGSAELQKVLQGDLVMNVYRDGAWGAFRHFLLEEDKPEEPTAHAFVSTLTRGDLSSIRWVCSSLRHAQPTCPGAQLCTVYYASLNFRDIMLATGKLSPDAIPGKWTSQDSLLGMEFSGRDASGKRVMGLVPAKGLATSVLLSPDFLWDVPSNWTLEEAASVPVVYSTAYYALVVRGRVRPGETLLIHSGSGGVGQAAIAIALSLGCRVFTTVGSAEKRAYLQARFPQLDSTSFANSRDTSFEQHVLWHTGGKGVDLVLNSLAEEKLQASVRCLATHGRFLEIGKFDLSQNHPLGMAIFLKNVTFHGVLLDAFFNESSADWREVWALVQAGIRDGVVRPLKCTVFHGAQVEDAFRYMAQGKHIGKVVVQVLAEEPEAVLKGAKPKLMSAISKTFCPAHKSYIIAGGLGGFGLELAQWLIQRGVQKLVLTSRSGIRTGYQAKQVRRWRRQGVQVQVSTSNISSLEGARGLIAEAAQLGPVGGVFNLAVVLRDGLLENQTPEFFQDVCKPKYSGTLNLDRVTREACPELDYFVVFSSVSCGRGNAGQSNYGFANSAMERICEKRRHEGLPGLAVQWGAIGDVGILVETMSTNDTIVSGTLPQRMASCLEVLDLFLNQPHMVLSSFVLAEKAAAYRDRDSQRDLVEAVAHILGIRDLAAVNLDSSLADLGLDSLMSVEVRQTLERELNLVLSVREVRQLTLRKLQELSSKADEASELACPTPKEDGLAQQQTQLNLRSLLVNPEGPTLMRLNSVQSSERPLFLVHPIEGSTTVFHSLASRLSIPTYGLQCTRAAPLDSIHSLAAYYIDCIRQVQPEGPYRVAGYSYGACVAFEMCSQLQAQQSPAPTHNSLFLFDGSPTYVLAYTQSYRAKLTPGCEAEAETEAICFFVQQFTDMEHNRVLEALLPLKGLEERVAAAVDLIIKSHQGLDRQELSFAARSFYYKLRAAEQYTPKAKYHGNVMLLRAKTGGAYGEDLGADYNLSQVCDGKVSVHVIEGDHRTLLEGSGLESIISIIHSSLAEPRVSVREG

Fatty acid synthase [6] = target: T3, Fatty acid synthase; experiment: inhibition of human FAS-TE enzyme activity – biochemical, kinetic fluorescence intensity, dose response (AID 624326); format: functional;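 note: rate of fluorescence rise from hydrolysis of a fluorogenic O-methyl fluorescein ester substrate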
cells = format: functional
Streptococcus = experiment: GAS UMAA2166 growth inhibition – luminescence, BacTiterGlo, counter-screen for streptokinase expression inhibitor project, dose response (AID 1915); format: functional, organism-based;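 note: potency for reduction of bacterial viability or growth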
[7] = non-specific 3'UTR reporter inhibition in Clone20-Shn3RL – cell-based, Renilla luciferase, cherry-picked, counter-screen for Shn3 inhibitor project, dose response (AID 624133); format: functional
Streptokinase A = target: T4, Streptokinase A (Streptococcus pyogenes serotype M1, UniProt P10520); experiment: viability-normalized secreted streptokinase activity reduction – plasminogen activation absorbance, OD405, dose response (AID 1914); format: functional, Streptococcus pyogenes M1 GAS;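 note: secreted streptokinase activity via plasminogen activation per viability signal from cell pellet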
T4 sequence (P10520 whole entry): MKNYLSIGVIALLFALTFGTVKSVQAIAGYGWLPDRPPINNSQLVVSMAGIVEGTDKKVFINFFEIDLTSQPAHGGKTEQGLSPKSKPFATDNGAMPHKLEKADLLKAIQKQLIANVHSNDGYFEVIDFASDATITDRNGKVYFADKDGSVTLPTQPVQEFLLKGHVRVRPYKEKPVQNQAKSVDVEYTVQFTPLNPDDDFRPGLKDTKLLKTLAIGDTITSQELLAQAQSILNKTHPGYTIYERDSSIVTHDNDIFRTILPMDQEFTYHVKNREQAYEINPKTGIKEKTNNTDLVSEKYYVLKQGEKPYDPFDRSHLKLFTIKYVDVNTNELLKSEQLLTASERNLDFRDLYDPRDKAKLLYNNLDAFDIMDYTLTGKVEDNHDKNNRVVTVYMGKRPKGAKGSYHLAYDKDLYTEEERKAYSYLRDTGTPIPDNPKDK

[8] = tested on: Streptococcus sp. 'group A'; experiment: Streptococcus pyogenes SK(-)GAS viability under kanamycin – luminescence, BacTiterGlo, confirmation, counter-screen for streptokinase expression inhibitor project, dose response (AID 1900); format: functional, organism-based
[9] = reduction of Shn3 3'UTR-driven luciferase in osteoblasts – cell-based, Clone20 osteoblasts, firefly luciferase, cherry-picked, dose response (AID 624132); format: functional;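 note: firefly luciferase luminescence from reporter carrying the Shn3 3'UTR in osteoblasts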
[10] = loss of viability in HepG2 cells – cell-based, CellTiter-Glo, cherry-picked, cytotoxicity control for Shn3 inhibitor project, dose response (AID 624134); format: functional
[11] = target: Heat shock protein HSP 90-alpha (Homo sapiens, UniProt P07900); format: functional, organism-based
[12] = THP-1 cell cytotoxicity, dose response, cytotoxicity control for non-replicating M. tuberculosis project (AID 489025); format: functional
[13] = Vero E6 cell cytotoxicity, dose response, cytotoxicity control for non-replicating M. tuberculosis project, secondary assay (AID 492998); format: functional, VeroE6; conditions: Vero C1008
[14] = target: T2, Heat shock factor protein 1; experiment: enhancement of HSF1-driven luciferase signal – cell-based, NIH3T3, luminescence, dose retest, confirmation (AID 435004); format: functional;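 note: stress induced by proteasome inhibitor MG132 added 30 min after compound; luciferase reporter driven by HSF1 response element in NIH3T3 cells; actives raise luminescence as potentiators of the MG132 stress response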
[15] = target: T5, Calpain-2 catalytic subunit (Sus scrofa, UniProt P43367); experiment: m-calpain protease blockers, concentration series – biochemical, fluorogenic peptide substrate, dose response (AID 1420); format: functional
T5 sequence (P43367 whole entry): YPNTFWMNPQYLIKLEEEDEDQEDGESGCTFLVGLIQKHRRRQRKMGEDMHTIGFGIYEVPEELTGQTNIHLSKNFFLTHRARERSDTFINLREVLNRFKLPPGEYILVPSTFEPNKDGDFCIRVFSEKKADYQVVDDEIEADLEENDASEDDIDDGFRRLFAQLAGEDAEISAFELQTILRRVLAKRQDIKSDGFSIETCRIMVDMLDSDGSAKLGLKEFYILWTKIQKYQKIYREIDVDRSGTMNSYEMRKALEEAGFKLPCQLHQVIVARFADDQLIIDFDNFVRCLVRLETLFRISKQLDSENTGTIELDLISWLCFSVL

With `Cc1ccc(C2C3=C(CC(C)(C)CC3=O)N=C3c4ccccc4C(=O)C32)cc1` (stereo unspecified) the EC50 [1] was 1.01 µM (active), the CC50 [2] was > 40 µM (active) and the EC50 [3] was 24 µM (active).
With `CCCn1c(C)cc(C(=O)COC(=O)c2cccnc2O)c1C` the IC50 (Leucine aminopeptidase) was 15.3 µM (active), the EC50 [4] was 0.289 µM (active) and the AC50 (HEK293) was 5.4 µM (active).
For `COc1cc2c(cc1OC)C(c1ccc(-c3ccccc3Cl)o1)=NCC2`, the AC50 (HEK293) was 15.2 µM (active).
In the case of `Cc1ccc(C(=O)CN(CCCC(N)=O)S(=O)(=O)c2ccc([N+](=O)[O-])cc2)cc1`, the IC50 (Fatty acid synthase [5]) was 3.83 µM (active) and the IC50 (Fatty acid synthase [6]) was 2.83 µM (active).
In the case of `Cc1nn(-c2ccccc2)nc1C(=O)c1c(C)nn(-c2ccccc2)c1O`, the CC50 [2] was 35.8 µM (active) and the IC50 (cells) was 12.8 µM (active).
For `CC(C)=CCc1cc([C@@H]2COc3c(ccc4c3C=CC(C)(C)O4)C2)c(O)cc1O`, the EC50 (Streptococcus) was 5.23 µM (active), the AC50 [7] was 4.11 µM (active) and the EC50 (Streptokinase A) was > 150 µM (not active). The EC50 [8] was 1.8 µM (active), the AC50 [9] was 7.54 µM (active) and the AC50 [10] was 58.3 µM (active). For the same compound, the AC50 [11] was 3.57 µM (active).
With `COc1ccc(NC(=O)CN(c2ccc([N+](=O)[O-])cc2)S(=O)(=O)c2ccccc2)cc1` the IC50 (Fatty acid synthase [5]) was 7.77 µM (active) and the IC50 (Fatty acid synthase [6]) was 3.48 µM (active).
In the case of `CN1C(=O)C(=C(Nc2ccccc2)SCc2ccccc2Cl)C(=O)N(C)C1=O`, the CC50 [12] was > 40 µM (active), the IC50 (cells) was 3.96 µM (active) and the CC50 [13] was > 20 µM (active).
For `CC(C)(C)SCCNC(=O)c1ccc(Cl)c([N+](=O)[O-])c1`, the IC50 (Fatty acid synthase [5]) was 6.39 µM (active), the IC50 (Fatty acid synthase [6]) was 5.65 µM (active) and the AC50 [11] was 2.84 µM (active).
For `CC(=O)Oc1ccc(-c2cccc(C(=O)OCC(=O)N(C)c3ccccc3)c2)cc1`, the EC50 [14] was > 260 µM (inactive) and the IC50 [15] was 14.2 µM (not active).
In the case of `Cc1ccc(-c2nnc(NC(=O)c3ccco3)o2)c(C)c1`, the CC50 [12] was > 40 µM (active), the IC50 (cells) was 0.81 µM (active) and the CC50 [13] was 17.5 µM (active).
For `CCc1nc(SCC(=O)c2ccc3c(c2)OCCO3)c2ccccc2n1`, the AC50 (HEK293) was 32.8 µM (active).
With `COCCn1c(-c2ccc(OC(F)(F)C(F)C(F)(F)F)cc2)nc2c1c(=O)[nH]c(=O)n2CC(C)C` (stereo unspecified) the CC50 [2] was > 40 µM (active).
For `O=C(Nc1cccc(Cl)c1N1CCCC1)c1ccc([N+](=O)[O-])o1`, the CC50 [12] was 24 µM (active), the IC50 (cells) was 18.4 µM (active) and the CC50 [13] was 12.4 µM (active).
